pIC50: −log10 of the molar value.

As a reminder, the pIC50 is −log10 of the IC50, conventionally taken in molar units.

T1 sequence (P33032 whole entry): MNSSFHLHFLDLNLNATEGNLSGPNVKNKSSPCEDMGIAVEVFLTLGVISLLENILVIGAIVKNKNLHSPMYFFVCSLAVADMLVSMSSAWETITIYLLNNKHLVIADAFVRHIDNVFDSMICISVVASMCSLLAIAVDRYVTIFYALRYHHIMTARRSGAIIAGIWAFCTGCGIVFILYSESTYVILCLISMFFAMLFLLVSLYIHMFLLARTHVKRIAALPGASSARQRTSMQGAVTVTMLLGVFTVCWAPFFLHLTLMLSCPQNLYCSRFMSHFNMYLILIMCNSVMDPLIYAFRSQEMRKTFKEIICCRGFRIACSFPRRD

This experiment concerns the target T1, human MC5R (hMC5R) (Homo sapiens, UniProt P33032).
T1 construct: purchased Perkin Elmer RBXMC5M400UA
Briefly: Human MC5R radioligand binding assay (membranes, [125I] NDP-MSH displacement). The conditions noted are these: hMC5R binding; tested as trifluoroacetate or hydrochloride salts, or free bases; read-out: MC5R radioligand IC50. An outline of the steps:
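Frozen human MC5R membranes incubated with test compound and in-house iodogen-labeled, HPLC-purified [125I]NDP-MSH for 1 hr at 37° C. Binding measured as displacement of the radioligand.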
Consider `CC(C)[C@@H](CN1CC[C@@H](CNC(=O)c2ccc3ccccc3c2)N[C@@H](CCN2CCCCC2)C1=O)c1ccccc1` [Compound 394, N-(((3S,5S)-1-((R)-3-methyl-2-phenylbutyl)-2-oxo-3-(2-(piperidin-1-yl)ethyl)-1,4-diazepan-5-yl)methyl)-2-naphthamide], for which the pIC50 is more than 6.00.

Turning to `CC(C)[C@H](CN1CC[C@@H](CNC(=O)c2ccc3ccccc3c2)N[C@@H](CCN2CCCCC2)C1=O)c1ccccc1` [Compound 395, N-(((3S,5S)-1-((S)-3-methyl-2-phenylbutyl)-2-oxo-3-(2-(piperidin-1-yl)ethyl)-1,4-diazepan-5-yl)methyl)-2-naphthamide], the pIC50 was more than 7.00.

Turning to `CC(C)c1ccc(/C=C/C(=O)NC[C@@H]2CCN(CC(c3ccccc3)c3ccccc3)C(=O)[C@H](CCN3CCCCC3)N2)cc1` [Compound 396, (E)-N-(((3S,5S)-1-(2,2-diphenylethyl)-2-oxo-3-(2-(piperidin-1-yl)ethyl)-1,4-diazepan-5-yl)methyl)-3-(4-isopropylphenyl)acrylamide], the pIC50 was more than 7.00.

As to `CC(C)c1ccc(/C=C/C(=O)NC[C@@H]2CCN(CC(c3ccccc3)c3ccccc3)C(=O)[C@H](CCN)N2)cc1` [Compound 397, (E)-N-(((3S,5S)-3-(2-aminoethyl)-1-(2,2-diphenylethyl)-2-oxo-1,4-diazepan-5-yl)methyl)-3-(4-isopropylphenyl)acrylamide], the pIC50 was more than 6.00.

Take `Cc1ccc(/C=C/C(=O)NC[C@@H]2CCN(CC(c3ccccc3)c3ccccc3)C(=O)[C@H](CCN3CCCCC3)N2)c(C)c1` [Compound 398, (E)-3-(2,4-dimethylphenyl)-N-(((3S,5S)-1-(2,2-diphenylethyl)-2-oxo-3-(2-(piperidin-1-yl)ethyl)-1,4-diazepan-5-yl)methyl)acrylamide]: the pIC50 is more than 7.00.

With `Cc1ccc(/C=C/C(=O)NC[C@@H]2CCN(CC(c3ccccc3)c3ccccc3)C(=O)[C@H](CCN)N2)c(C)c1` [Compound 399, (E)-N-(((3S,5S)-3-(2-aminoethyl)-1-(2,2-diphenylethyl)-2-oxo-1,4-diazepan-5-yl)methyl)-3-(2,4-dimethylphenyl)acrylamide], the pIC50 was more than 6.00.

Take `O=C(/C=C/c1ccc(F)cc1F)NC[C@@H]1CCN(CC(c2ccccc2)c2ccccc2)C(=O)[C@H](CCN2CCCCC2)N1` [Compound 400, (E)-3-(2,4-difluorophenyl)-N-(((3S,5S)-1-(2,2-diphenylethyl)-2-oxo-3-(2-(piperidin-1-yl)ethyl)-1,4-diazepan-5-yl)methyl)acrylamide]: the pIC50 was more than 7.00.

On to `NCC[C@@H]1N[C@H](CNC(=O)/C=C/c2ccc(F)cc2F)CCN(CC(c2ccccc2)c2ccccc2)C1=O` [Compound 401, (E)-N-(((3S,5S)-3-(2-aminoethyl)-1-(2,2-diphenylethyl)-2-oxo-1,4-diazepan-5-yl)methyl)-3-(2,4-difluorophenyl)acrylamide], for which the pIC50 was more than 6.00.

Turning to `O=C(/C=C/c1ccc(Cl)cc1)NC[C@@H]1CCN(CC(c2ccccc2)c2ccccc2)C(=O)[C@H](CNC(=O)C2CCCCC2)N1` [Compound 402, N-(((2S,7S)-7-(((E)-3-(4-chlorophenyl)acrylamido)methyl)-4-(2,2-diphenylethyl)-3-oxo-1,4-diazepan-2-yl)methyl)cyclohexanecarboxamide], the pIC50 was more than 5.00.

On to `O=C(/C=C/c1ccc(Cl)cc1)NC[C@@H]1CCN(CC(c2ccccc2)c2ccccc2)C(=O)[C@H](CCN2CCOCC2)N1` [Compound 403, (E)-3-(4-chlorophenyl)-N-(((3S,5S)-1-(2,2-diphenylethyl)-3-(2-morpholinoethyl)-2-oxo-1,4-diazepan-5-yl)methyl)acrylamide], for which the pIC50 is more than 7.00.

Take `Cc1ccc(C)n1CC[C@@H]1N[C@H](CNC(=O)/C=C/c2ccc(Cl)cc2)CCN(CC(c2ccccc2)c2ccccc2)C1=O` [Compound 404, (E)-3-(4-chlorophenyl)-N-(((3S,5S)-3-(2-(2,5-dimethyl-1 H-pyrrol-1-yl)ethyl)-1-(2,2-diphenylethyl)-2-oxo-1,4-diazepan-5-yl)methyl)acrylamide]: the pIC50 is more than 6.00.

Turning to `CC1CCC(C)N1CC[C@@H]1N[C@H](CNC(=O)/C=C/c2ccc(Cl)cc2)CCN(CC(c2ccccc2)c2ccccc2)C1=O` (stereo partly drawn) [Compound 405, (E)-3-(4-chlorophenyl)-N-(((3S,5S)-3-(2-(2,5-dimethylpyrrolidin-1-yl)ethyl)-1-(2,2-diphenylethyl)-2-oxo-1,4-diazepan-5-yl)methyl)acrylamide], the pIC50 was more than 7.00.

Turning to `CC[C@H](CN1CC[C@@H](CNC(=O)/C=C/c2ccc(Cl)cc2)N[C@@H](CCN2CCCC2)C1=O)c1ccccc1` [Compound 407, (E)-3-(4-chlorophenyl)-N-(((3S,5S)-2-oxo-1-((S)-2-phenylbutyl)-3-(2-(pyrrolidin-1-yl)ethyl)-1,4-diazepan-5-yl)methyl)acrylamide], the negative logarithm of the IC50 (pIC50) is more than 7.00.

With `CC[C@H](CN1CC[C@@H](CNC(=O)/C=C/c2ccc(Cl)cc2)N[C@@H](CCNC(C)C)C1=O)c1ccccc1` [Compound 408, (E)-3-(4-chlorophenyl)-N-(((3S,5S)-3-(2-(isopropylamino)ethyl)-2-oxo-1-((S)-2-phenylbutyl)-1,4-diazepan-5-yl)methyl)acrylamide], the pIC50 is more than 7.00.

Regarding `CC[C@H](CN1CC[C@@H](CNC(=O)c2ccc3cc(Cl)ccc3c2)N[C@@H](CCN2CCCC2)C1=O)c1ccccc1` [Compound 409, 6-chloro-N-(((3S,5S)-2-oxo-1-((S)-2-phenylbutyl)-3-(2-(pyrrolidin-1-yl)ethyl)-1,4-diazepan-5-yl)methyl)-2-naphthamide], the pIC50 was more than 8.00.

Consider `CC[C@H](CN1CC[C@@H](CNC(=O)c2ccc(Cl)c(Cl)c2)N[C@@H](CCN2CCCCC2)C1=O)c1ccccc1` [Compound 410, 3,4-dichloro-N-(((3S,5S)-2-oxo-1-((S)-2-phenylbutyl)-3-(2-(piperidin-1-yl)ethyl)-1,4-diazepan-5-yl)methyl)benzamide], for which the pIC50 was more than 7.00.

For the compound `CC[C@H](CN1CC[C@@H](CNC(=O)c2ccc(Cl)c(Cl)c2)N[C@@H](CCN2CCCC2)C1=O)c1ccccc1` [Compound 411, 3,4-dichloro-N-(((3S,5S)-2-oxo-1-((S)-2-phenylbutyl)-3-(2-(pyrrolidin-1-yl)ethyl)-1,4-diazepan-5-yl)methyl)benzamide], the pIC50 was more than 7.00.

Turning to `O=C(NC[C@@H]1CCN(CC(c2ccccc2)c2ccccc2)C(=O)[C@H](CCN2CCCCC2)N1)OCc1ccccc1` [Compound 412, benzyl ((3S,5S)-1-(2,2-diphenylethyl)-2-oxo-3-(2-(piperidin-1-yl)ethyl)-1,4-diazepan-5-yl)methylcarbamate], the pIC50 is more than 6.00.

For `O=C(/C=C/c1ccc(Br)cc1)NC[C@@H]1CCN(CC(c2ccccc2)c2ccccc2)C(=O)[C@H](CCN2CCCCC2)N1` [Compound 413, (E)-3-(4-bromophenyl)-N-(((3S,5S)-1-(2,2-diphenylethyl)-2-oxo-3-(2-(piperidin-1-yl)ethyl)-1,4-diazepan-5-yl)methyl)acrylamide], the pIC50 is more than 8.00.

In the case of `O=C(NC[C@@H]1CCN(CC(c2ccccc2)c2ccccc2)C(=O)[C@H](CCN2CCCCC2)N1)c1cc(-c2ccc(Cl)cc2)on1` [Compound 414, 5-(4-chlorophenyl)-N-(((3S,5S)-1-(2,2-diphenylethyl)-2-oxo-3-(2-(piperidin-1-yl)ethyl)-1,4-diazepan-5-yl)methyl)isoxazole-3-carboxamide], the pIC50 is more than 7.00.

The values are drawn from patent US8008291B2 (Mimetica Pty Ltd, priority 2008, dated 2011).
